Experimental data as given in a melting point compilation (Tetko et al.; mined from patent text by program, amines drawn as free bases though some values may be those of a salt).

Row | melting point [°C] | SMILES
1 | 295 to 297 | COc1cc2c(O)c(S(=O)(=O)N(C)C)cnc2cc1C
2 | 134 to 135 | Cc1ccc(S(=O)(=O)OCC2CC(OS(=O)(=O)c3ccc(C)cc3)CN2S(=O)(=O)c2ccc(C)cc2)cc1 (stereo not drawn)
3 | 162 to 165 | CCOC(=O)Cn1c2cccccc-2c(C(C)=O)c1=O
4 | 152 to 153 | Cc1oc(-c2ccccc2)nc1COc1cc(COc2ccccc2CC(=O)O)on1
5 | 212 to 214 | NC(=O)N1C(=O)C(C(=O)c2cc(Cl)cs2)c2cc(Cl)ccc21 (stereo not drawn)
6 | 282 to 284 | Nc1nc2c(sc(=O)n2C2OC(COC(=O)c3ccccc3)C(OC(=O)c3ccccc3)C2F)c(=O)[nH]1 (stereo not drawn)
7 | 234 to 236 | CN1CCc2nc(C(=O)N[C@@H]3C[C@@H](C(=O)O)CC[C@H]3NC(=O)c3cc4cc(Cl)ccc4[nH]3)sc2C1
8 | 157 to 158 | O=C(O)c1ccc(CCCC2SCC(=O)N2CCC2(O)CCSCC2)cc1 (stereo not drawn)
9 | 182 to 184 | C[C@H](NC(=O)c1c(CBr)c(-c2ccccc2)nc2ccccc12)C1CCCCC1
10 | 74 to 76 | CCOC(=O)c1nc(-c2ccc(OC)cc2)oc1C
11 | 141 to 152 | CCS(=O)(=O)N[C@H](C(=O)NCc1ccc(OCc2ccccc2)c(OC)c1)C(C)C
12 | 134 to 135 | COC(=O)C(C#N)=Cc1cc2c(cc1C)N(CCOC(C)=O)C(C)(C)CC2C (stereo not drawn)
13 | 146 to 148 | CC(=O)OC1(c2ccc3c(c2)OCO3)C(=O)N(Cc2ccc(Cl)cc2)c2ccccc21 (stereo not drawn)
14 | 110 to 111 | CC(=O)C(=Cc1ccc(Cl)c([N+](=O)[O-])c1)C(C)=O
15 | 122 | Cc1cc(Oc2cc(C(F)(F)F)nn2C)nc(-c2ccsc2)n1
16 | 114 to 116 | CCOC(=O)C(=O)Nc1cc(C#N)cc([N+](=O)[O-])c1
17 | 130 to 131 | CCOC(=O)N1c2cc(OC)c(OC)cc2C(=O)C(=CN(C)C)C1C (stereo not drawn)
18 | 66 to 68 | CCOC(=O)c1cc(CC)sc1Nc1ccccc1[N+](=O)[O-]
19 | 119 to 121 | COc1ccc(C)cc1NC(=O)Nc1ccc(N2CCN(C(=O)Nc3ccc(CCO)cc3C)CC2)cc1
20 | 75 to 76 | CC1(C)CCC(C)(C)c2cc(Oc3ccc(C=O)cc3)ccc21

Row | melting point [°C] | SMILES
21 | 182 to 183 | O=C1CCCc2c1c1cc(F)ccc1n2Cc1ccc(F)cc1
22 | 130 to 132 | COC(=O)C1=C(C)NC(C)=C(C(=O)OCCCCCCCCCCCN2C(=O)c3ccccc3C2=O)C1c1cccc([N+](=O)[O-])c1 (stereo not drawn)
23 | 92 to 93 | Cc1ccnc2c1C(=O)CC(c1ccsc1)C2 (stereo not drawn)
24 | 160 to 162 | CC(C)n1nc(-c2c(-c3ccccc3)nn3ccc(OCCN4CCOCC4)cc23)ccc1=O
25 | 90 to 95 | CC(=O)OCC(=O)Nc1ccc(C(CC2CCCC2)C(=O)Nc2nccs2)cc1 (stereo not drawn)
26 | 93 to 96 | CCOP(=O)(CCN1CCC(N(C)S(=O)(=O)c2ccc(Nc3nccc(Nc4ccc(F)c(F)c4)n3)cc2)CC1)OCC
27 | 89 to 90 | CCCc1c(OCCOCCOc2ccc3ccc(OCC(=O)OC)cc3c2C(C)=O)ccc(C(C)=O)c1O
28 | 220 to 222 | CC(=O)N(C(=O)OC(C)(C)C)c1ccc(-c2nc3n(Cc4c(F)cccc4F)cc(-c4ccccc4)c(=O)n3c2C)cc1
29 | 217 to 220 | NC(=O)c1sc2nc(N3CCC(NCC(O)c4ccncc4)CC3)cc(C(F)(F)F)c2c1N (stereo not drawn)
30 | 173 to 174 | CC(=O)OCCn1ccc(=O)c(OCc2ccccc2)c1C(OC(C)=O)c1ccccc1F (stereo not drawn)
31 | 69 to 71 | CC(=O)OC(CCc1cc2cccnc2n(-c2cccc([N+](=O)[O-])c2)c1=O)c1ccncc1 (stereo not drawn)
32 | 97 to 99 | CNCc1cccc2c(=O)c(C)c(-c3ccccc3)oc12
33 | 112 to 114 | COc1ccccc1-c1ccc(C)n1CC[C@H]1C[C@H](O)CC(=O)O1 (relative stereo)
34 | 152 to 154 | CCOC(=O)COc1ccc2c(=O)c3c(oc2c1)C(=Cc1ccccc1)CC3
35 | 219 to 220 | COc1cc(C(C)C)ccc1C1(O)C(=O)c2cccc(N)c2C1=O (stereo not drawn)
36 | 83 to 84 | CC(C)=CCOc1ccc2c(=O)c(C)c(-c3ccccc3)oc2c1C(=O)C=Cc1ccccc1
37 | 181 to 183 | COc1nc(C)cc2nc(S(=O)(=O)Nc3nn(C)c4ccccc34)nn12
38 | 217 to 219 | CCOC(=O)Cn1c2c([nH]c(=O)c1=O)CCC1=C2C=C([N+](=O)[O-])CC1
39 | 91 | CCOC(=O)CC(=O)Nc1cccc(F)c1CO
40 | 249 to 254 | NCC1CN(c2c(F)cc3c(=O)c(C(=O)O)cn(-c4nc(N)c(F)cc4F)c3c2Cl)C1

The remaining lines, values behind:

Row | SMILES | melting point [°C]
41 | CCCCC(OC(=O)c1ccccc1)P(=O)(O)OC(CCCCN)C(=O)N1CCCC1C(=O)O (stereo not drawn) | 158 to 170
42 | O=C(O)c1ccc(NCCCOc2ccc(Cl)cc2)cc1 | 180 to 181
43 | Cc1cc(S(=O)(=O)O)c(NC(=O)Nc2cccc(Br)c2)cc1Cl | 275
44 | NC(=O)N(O)[C@@H]1COc2cc(OCc3ccccc3)ccc21 | 192 to 193
45 | COc1ccc(-c2cc3ncnc(Nc4ccc5[nH]ccc5c4)c3s2)cc1 | 150 to 180
46 | COc1ccc(Nc2ccc(OCc3ccccc3)cc2)cc1 | 108
47 | NC(C(=O)OC1CCCCC1)C(=O)OC1CCCCC1 | 46 to 47
48 | O=C(O)c1cc(Cl)cc2ccoc12 | 212 to 215
49 | CN(C)CCOc1ccc(/C=C/C(=O)N2CC(CCl)c3c2cc(OCc2ccccc2)c2ncccc32)cc1 (stereo not drawn) | 172 to 175
50 | CN1CC(OC(=O)C(c2ccccc2)c2ccccc2)CNC1=N[N+](=O)[O-] (stereo not drawn) | 187
51 | CCc1cc2c(s1)-n1c(C)nnc1C(CCCCC(=O)O)N=C2c1ccc(Cl)cc1 (stereo not drawn) | 257 to 260
52 | O=C(Nc1ccc(-n2nc(C(F)(F)F)cc2C(F)(F)F)cc1)c1ccoc1 | 206 to 207
53 | O=C(NCCCl)Oc1ccccc1 | 65 to 67
54 | C=CCC1(CC)C(=O)NC(=O)NC1=O | 157 to 159
55 | O=C(O)CCC(=O)C(Cc1ccccc1)NC(=O)c1ccccc1 (stereo not drawn) | 143 to 146
56 | CNC(=O)c1cc(C)ccc1NC(=O)c1ccc(O)cc1 | 250 to 252
57 | CC[C@@H]1C[C@H](NC(=O)OCc2ccccc2)c2cc(C(F)(F)F)ccc2N1 | 154 to 155
58 | CCc1noc(-c2cc3c4cc(N(C)C)ccc4n(CCCCl)c3cn2)n1 | 183 to 186
59 | Cc1cc(CCCOc2c(C)cc(-c3noc(C#N)n3)cc2C)on1 | 93 to 94
60 | CC(C)NCC(O)COc1ccc(CCOCC2CCC2)cc1 (stereo not drawn) | 62 to 63

Row | SMILES | melting point [°C]
61 | COC(=O)c1c(Sc2ccc(OC)cc2)nc(-c2ccccc2)n1Cc1cc2c(cc1Cl)OCO2 | 161
62 | CCCOC(=O)c1cn(C(C)(C)C)c2ncc([N+](=O)[O-])cc12 | 116 to 120
63 | CCCCCCCC(=O)N(C)Cc1cccc(-c2ccc(CCC(=O)O)cc2)c1 | 91
64 | CC(C)(C)c1csc(-c2cc3cc(C=O)ccc3o2)n1 | 83 to 84
65 | O=[N+]([O-])c1cnn2c(-c3cccc(C(F)(F)F)c3)ccnc12 | 159 to 161
66 | Cc1cc(N=C2NCCN2)cc(NS(C)(=O)=O)c1 | 54 to 77
67 | O=c1c(Cl)c(Cl)cnn1-c1cc(C(F)(F)F)cc(C(F)(F)F)c1 | 255 to 262
68 | NC1=NN(c2cccc(C(F)(F)F)c2)CC1 | 104 to 107
69 | CCOc1ccc(C#N)c(F)c1F | 45
70 | CCN(CC)CCCCCCCCNc1nc(N)nc(-c2cc(Cl)ccc2Cl)n1 | 101 to 102
71 | COc1cc(C2NCCS2)ccc1O (stereo not drawn) | 158 to 161
72 | CC(c1cccc(Cl)c1)(n1ccnc1)C1(O)C2CC3CC(C2)CC1C3 (stereo not drawn) | 121
73 | COC(=O)c1ccc(OC)c(OC(C)(C)C)c1 | 98 to 100
74 | Cc1noc(NC(=O)CCl)c1C | 97 to 100
75 | NC1=NC(c2cccc(Oc3ccccc3)c2)N(c2cccc(Cc3ccccc3)c2)C(N)=N1 (stereo not drawn) | 165 to 167
76 | CCCCNCc1ccc(-c2ccccc2S(=O)(=O)NC(C)(C)C)cc1 | 98 to 99
77 | COc1ccc(C2OCC(C)(C)C(C(=O)NCCC(=O)O)O2)cc1 (stereo not drawn) | 135 to 136
78 | Cc1cc(OC(F)F)nc(S(C)(=O)=O)n1 | 86 to 88
79 | COc1cc(Br)c(CCC#N)cc1OC | 78 to 80
80 | CC1Nc2ccc(-c3csc(C#N)c3)cc2C2(CCCC2)O1 (stereo not drawn) | 103 to 104

Row | SMILES | melting point [°C]
81 | Cn1cc(S(C)=O)c(=O)c2ccc(F)cc21 (stereo not drawn) | 226 to 228
82 | Cc1oc(-c2ccc(C(F)(F)F)cc2)cc1COc1cccc(C=O)c1 | 85 to 86
83 | CN1CCC(c2nn(-c3ccc(C(F)(F)F)cc3)c3ccc(F)cc23)CC1 | 126 to 128
84 | O=[N+]([O-])c1cccc(Sc2ccc(-c3ccc(Br)cc3)s2)c1 | 120 to 122
85 | CN(C)S(=O)(=O)c1c(C(F)(F)F)nn(-c2c(Cl)cc(C(F)(F)F)cc2Cl)c1N | 178 to 179
86 | FC(F)(F)Oc1cccc(CN2CCC(Nc3nnc(C(F)(F)F)s3)CC2)c1 | 116
87 | CC(C)(C)c1cc(OCc2cccc(C#N)c2)cc(C(C)(C)C)c1O | 78 to 81
88 | COc1ccc(COC(=O)N[C@@H](Cc2ccccc2)C(=O)O)cc1 | 87 to 88
89 | O=c1[nH]c2ccc(Br)cc2n1Cc1ccccc1 | 245 to 246
90 | O=C1N(Cc2cnccc2C(F)(F)F)c2ccccc2C12COc1cc3c(cc12)OCCO3 (stereo not drawn) | 131 to 132
91 | CCCC(=O)N(Cc1ccc(OC(F)(F)F)cc1)c1cc(Cl)cc(-c2nnn[nH]2)c1 | 179
92 | CNC(=O)c1ccc2[nH]ccc2c1 | 140 to 141
93 | CN(C(=O)c1ccc(C(C)(C)C)cc1)C1N(C)C(c2ccc(F)cc2)=NC1(C(F)(F)F)C(F)(F)F (stereo not drawn) | 129 to 130
94 | N#Cc1ccc(C2NC(=O)NC2=O)c(SCCc2ccccc2)c1 (stereo not drawn) | 198
95 | CC(=O)Nc1cccc(-c2nn(Cc3oc4ccccc4c(=O)c3-c3ccccc3)c3ncnc(N)c23)c1 | 122 to 123
96 | O=C(c1ccc(F)cc1)c1ccc(Cl)cn1 | 98 to 100
97 | Cn1ncc(C(=O)N2C[C@H]3C[C@@H]2CO3)c1C(=O)Nc1ccn2nc(-c3cccnc3)nc2c1 | 272 to 273
98 | O=C(O)CCCNC(=O)c1nc(Cl)c(Cl)[nH]1 | 285
